Assay results: PMC6631462, “Quaternary Ammonium Leucine-Based Surfactants: The Effect of a Benzyl Group on Physicochemical Properties and Antimicrobial Activity” (Pharmaceutics, 2019)
Several values for one entry are separate records, joined by “and”; a condition that tells them apart may be missing. Identical values can stand only once. Like-named read-outs stand apart in the source and are kept apart here.

Columns and labels:
Caco-2 cells [1] = test: LDH release assay on Caco-2 cells; type: cell-based; conditions: Caco-2, concentration causing 50% LDH release, mean ± SD
Experimental: (§1) Colorectal-carcinoma-derived epithelial Caco-2 cells (European Collection of Cell Cultures) and airway epithelial Calu-3 cells (American Type Culture Collection; ATCC) were cultured in DMEM supplemented with 10% of FBS and 1% of an antibiotic–antimycotic mixture. Erythrocytes were collected from mice blood. The cytotoxicity of the N-benzyl quaternary ammonium surfactants derived from leucine in comparison to the commercial BAC was studied by performing two cytotoxicity assays (MTS and LDH as indicators of metabolic activity and membrane integrity, respectively) and by a haemolytic assay. The assays were conducted as reported in our previous publications. EC50 values from the MTS assay (concentration of surfactant that causes 50% cell death) and the LDH assay (concentration of surfactants that causes 50% LDH release from cells), as well as HC50 values from the haemolytic assay (concentration of surfactants that causes 50% haemoglobin release from erythrocytes) were calculated using a nonlinear regression model (Prism version 5.0, GraphPad Inc., San Diego, CA, USA) as follows:(3) Y=BOTTOM+Top−Bottom/1+10^(LogEC50−x) Hill Slope where Top and Bottom are plateaux in the units of the Y axis.

Calu-3 cells [2] = test: MTS cytotoxicity assay on Calu-3 cells; type: cell-based; conditions: Calu-3, concentration causing 50% reduction of viable cells, mean ± SD
Experimental: as §1

Caco-2 cells [3] = test: MTS cytotoxicity assay on Caco-2 cells; type: cell-based; conditions: Caco-2, concentration causing 50% reduction of viable cells, mean ± SD
Experimental: as §1

erythrocytes = test: Haemolytic assay; type: cell-based, mice; conditions: concentration causing 50% haemoglobin release from erythrocytes, mean ± SD
Experimental: as §1

[4] = test system: Candida albicans ATCC 24433; test: Antimicrobial assay, MIC determination (adapted to yeast); type: cell-based; conditions: for MIC: C. albicans; for Selectivity index EC50/MIC: MIC C. albicans
Experimental: (§2) Bacterial strains were cultured overnight at 35–36 °C in blood agar plates. Minimum inhibitory concentrations (MICs) were determined according to previous reports and following protocols defined by the European Committee on Antimicrobial Susceptibility Testing (EUCAST). MICs against Candida albicans were determined using a similar protocol with some adaptations to the yeast growth and requirements. All tests were done in triplicate. [table]

[5] = test system: Escherichia coli ATCC 25922; test: Antimicrobial assay, MIC determination (EUCAST); type: cell-based; conditions: for MIC: E. coli; for Selectivity index EC50/MIC: MIC E. coli
Experimental: as §2

[6] = test system: Pseudomonas aeruginosa ATCC 27853; test: Antimicrobial assay, MIC determination (EUCAST); type: cell-based; conditions: for Selectivity index EC50/MIC: MIC P. aeruginosa; for MIC: P. aeruginosa
Experimental: as §2

[7] = test system: Enterococcus faecalis ATCC 29212; test: Antimicrobial assay, MIC determination (EUCAST); type: cell-based; conditions: for MIC: E. faecalis; for Selectivity index EC50/MIC: MIC E. faecalis
Experimental: as §2

[8] = test system: Staphylococcus aureus ATCC 25923; test: Antimicrobial assay, MIC determination (EUCAST); type: cell-based; conditions: for Selectivity index EC50/MIC: MIC S. aureus; for MIC: S. aureus
Experimental: as §2

Calu-3 cells [9] = test: LDH release assay on Calu-3 cells; type: cell-based; conditions: Calu-3, concentration causing 50% LDH release, mean ± SD
Experimental: as §1

[10] = Surface tension measurements (De Nouy ring tensiometry); type: physicochemical; conditions: for 10^6 Γmax (surface excess concentration): Gibbs equation from tensiometry; for 10^6 Γmax (surface excess concentration) / CMC / γCMC (surface tension at CMC): 25 °C; for 10^6 Γmax (surface excess concentration) / Amin (area per molecule at water–air interface): mean ± SD; for Amin (area per molecule at water–air interface): derived from Γmax; for CMC / γCMC (surface tension at CMC): ultrapure water, tensiometry, mean ± SD of three replicates
Experimental: Different concentrations for each surfactant were prepared by dissolving the compounds in ultrapure water. Their ability to decrease air–water surface tension was studied at 25 °C using a DCA-100 tensiometer (First Ten Angstrom, Portsmouth, VA, USA) according to the De Nouy ring method. Each recorded surface tension value was the mean of three consecutive measurements. The ‘breakpoint’ of the plot of surface tension versus concentration of surfactant was used to calculate the critical micelle concentration (CMC, i.e., the minimum concentration at which surfactants aggregate to form micelles) and the surface tension at CMC (γCMC). The “breakpoint” is the point of intersection of the two lines fitting the experimental data by a linear regression model (Prism version 5.0, GraphPad Inc., San Diego, CA, USA). Tensiometric measurements allowed for the calculation of an additional two parameters related to the surface behaviour of surfactants. The first is the ‘surface excess concentration’, Γmax, which is a measure of how many surfactant molecules are adsorbed at the air–water interface, which was calculated using the Gibbs equation:(1) Γmax=1/2.303 nRT (δγ/δlogC) where R is the gas constant (8.314 J/mol K); T is the absolute temperature (K); n is equal to 1 for single chain ionic surfactants displaying only one ionisable group; and dγ/d log C can be calculated from the slope of the straight section before the CMC in the plot of surface tension versus concentration of the surfactant.
The other parameter is the area occupied by a single molecule of surfactant at the water–air interface (As), and is derived from Γmax through the equation:(2) Amin= 10^18/NΓmax.
All analyses were performed in triplicate.

[11] = Candida albicans, ATCC24433, read-out: MIC
[12] = Escherichia coli, ATCC25922, read-out: MIC
[13] = Pseudomonas aeruginosa, ATCC27853, read-out: MIC
[14] = Enterococcus faecalis, ATCC29212, read-out: MIC
[15] = Staphylococcus aureus, ATCC25923, read-out: MIC

| Compound | Haemolysis HC50 (erythrocytes) | Selectivity index EC50/MIC ([4]; EC50 from MTS assay on Caco-2) | Selectivity index EC50/MIC ([4]; EC50 from MTS assay on Calu-3) | Selectivity index EC50/MIC ([5]; EC50 from MTS assay on Caco-2) | Selectivity index EC50/MIC ([5]; EC50 from MTS assay on Calu-3) | Selectivity index EC50/MIC ([6]; EC50 from MTS assay on Caco-2) | Selectivity index EC50/MIC ([6]; EC50 from MTS assay on Calu-3) | Selectivity index EC50/MIC ([7]; EC50 from MTS assay on Caco-2) | Selectivity index EC50/MIC ([7]; EC50 from MTS assay on Calu-3) | Selectivity index EC50/MIC ([8]; EC50 from MTS assay on Caco-2) | Selectivity index EC50/MIC ([8]; EC50 from MTS assay on Calu-3) | 10^6 Γmax (surface excess concentration) [10] | Amin (area per molecule at water–air interface) [10] | CMC [10] | γCMC (surface tension at CMC) [10] | EC50 (Caco-2 cells [1]; Homo sapiens) | EC50 (Calu-3 cells [2]; Homo sapiens) | EC50 (Caco-2 cells [3]; Homo sapiens) | MIC [4, 11] | MIC [5, 12] | further results |
| --- | --- | --- | --- | --- | --- | --- | --- | --- | --- | --- | --- | --- | --- | --- | --- | --- | --- | --- | --- | --- | --- |
| Benzalkonium chloride [BAC, reference compound] | 0.064 ± 0.004 mM | 2.9 | 1.9 | 2.9 | 1.9 | 0.4 | 0.2 | 11.5 | 7.7 | 11.5 | 7.7 | 5.35 ± 0.27 mol/m^2 | 31.08 ± 1.60 A^2 | around 1 mM and 1.02 ± 0.06 mM | around 30 mN/m and 31.16 ± 0.05 mN/m | – | – | – | – | – | EC50 (Caco-2 cells [1]): 48 ± 4 µM; EC50 (Calu-3 cells [2]): 22 ± 5 µM; EC50 (Caco-2 cells [3]): 33 ± 1 µM; MIC [4]: 4 mg/L; MIC ([4]; read-out: MIC): 11.5 µM; MIC [5]: 4 mg/L; MIC ([5]; read-out: MIC): 11.5 µM; MIC [6]: 32 mg/L; MIC ([6]; read-out: MIC): 91.8 µM; MIC [7]: 1 mg/L; MIC ([7]; read-out: MIC): 2.9 µM; MIC [8]: 1 mg/L; MIC ([8]; read-out: MIC): 2.9 µM; EC50 (Calu-3 cells [9]): 29 ± 5 µM |
| CCCCCCCCCCCCOC(=O)C(CC(C)C)[N+](C)(C)Cc1ccccc1 (stereo not shown) [C12 LEU BENZ] | 0.054 ± 0.004 mM | 0.5 | 0.4 | 0.3 | 0.2 | 0.07 | 0.05 | 1.5 | 1.0 | 1.5 | 1.0 | 6.10 ± 0.24 mol/m^2 | 27.27 ± 1.34 A^2 | around 1 mM and 0.92 ± 0.11 mM | ~40 mN/m and 40.38 ± 0.13 mN/m | 19 ± 2 µM | 11 ± 2 µM | 16 ± 3 µM | 29.3 µM and 16 µg/mL | 32 µg/mL and 58.6 µM | MIC [6, 13]: 128 µg/mL and 235 µM; MIC [7, 14]: 4 µg/mL to 8 µg/mL and 10.6 µM; MIC [8, 15]: 4 µg/mL to 8 µg/mL and 10.6 µM; EC50 (Calu-3 cells [9]; Homo sapiens): 19 ± 3 µM |
| CCCCCCCCCCOC(=O)C(CC(C)C)[N+](C)(C)Cc1ccccc1 (stereo not shown) [C10 LEU BENZ] | 0.148 ± 0.018 mM | 1.3 | 0.9 | 1.3 | 0.9 | 0.6 | 0.5 | – | 15.2 | 42.1 | 30.8 | 6.76 ± 0.22 mol/m^2 | 24.09 ± 1.45 A^2 | 1.88 ± 0.16 mM | around 30 mN/m and 31.75 ± 0.09 mN/m | 158 ± 15 µM | 117 ± 5 µM | 160 ± 7 µM | 124 µM and 64 µg/mL | 64 µg/mL and 124 µM | MIC [6, 13]: > 128 µg/mL and > 248 µM; MIC [7, 14]: 4 µg/mL and 7.7 µM; MIC [8, 15]: 2 µg/mL and 3.8 µM; EC50 (Calu-3 cells [9]; Homo sapiens): 187 ± 24 µM |
| CCCCCCCCCCCCCCOC(=O)C(CC(C)C)[N+](C)(C)Cc1ccccc1 (stereo not shown) [C14 LEU BENZ] | 0.027 ± 0.006 mM | 0.9 | 1.0 | 0.5 | 0.5 | 0.06 | 0.06 | 3.7 | 4.0 | 5 | 5.4 | 7.39 ± 0.31 mol/m^2 | 22.46 ± 1.11 A^2 | 0.12 ± 0.08 mM | ~40 mN/m and 40.35 ± 0.11 mN/m | 12 ± 2 µM | 14 ± 2 µM | 13 ± 2 µM | 13.9 µM and 8 µg/mL | 16 µg/mL and 27.9 µM | MIC [6, 13]: 128 µg/mL and 223 µM; MIC [7, 14]: 2 µg/mL and 3.5 µM; MIC [8, 15]: 1 µg/mL to 2 µg/mL and 2.6 µM; EC50 (Calu-3 cells [9]; Homo sapiens): 14 ± 2 µM |
